The text below walks through data of patent US20220409617A1, “Drug Formulations and Methods of Treatment for Metabolic Disorders” (The Regents of the University of California, priority 2019, published 2022).

The assay is described as follows: Indirect calorimetry and food intake in metabolic cages. The class given is in vivo, mouse. The protocol: To examine the effects of sphingolipid-like compound 893 on whole body metabolism, indirect calorimetry was performed. Male C57BL/6J mice were maintained on the SD or HFD for 10-12 weeks, acclimated to metabolic cages that mimic the home environment, and then treated with vehicle or 120 mg/kg sphingolipid-like compound 893 by gavage at ZT8.5. […] As expected, RER values were lower during both light and dark cycles and diurnal fluctuations in substrate utilization were blunted in HFD-fed mice relative to SD controls (FIGS. 29 & 30). […] Consistent with the pharmacokinetic properties of sphingolipid-like compound 893 (see FIG. 12), RER returned to control values 24 h after sphingolipid-like compound 893 treatment (FIGS. 28 & 29). Animals were similarly responsive to a second treatment with sphingolipid-like compound 893 given 48 h after the first.
Metabolic parameters were measured using the Phenomaster system (TSE Systems Inc., Chesterfield, Mo.). The climate chamber was set to 21° C. and 50% humidity with a 12:12 h light-dark cycle. Mice were singly housed inside the chamber and acclimated for 48 h prior to data collection. VO2, VCO2, and food intake was measured every 27 min. Respiratory exchange ratio (RER) was calculated using the formula RER=VCO2/VO2. Energy expenditure was calculated using the equation EE=1.44(3.941×VO2+1.106×VCO2). In the indirect calorimetry studies in FIGS. 12 to 14, C57BL/6J mice were maintained on the HFD or SD for 10-12 weeks prior to evaluation and were naïve to therapy. Mice were serially evaluated in cohorts of 4 vehicle- and 4 sphingolipid-like compound 893-treated mice using 8 metabolic cages. Treatment was by gavage at ZT8.5, sphingolipid-like compound 893 was administered at 120 mg/kg in water. To evaluate the effect of morning treatment, vehicle or 120 mg/kg sphingolipid-like compound 893 was administered at ZT2 to 18 week old C57BL/6J males on a standard diet. Liquid diet experiments were also performed on 18 week old C57BL/6J males; mice were treated with sphingolipid-like compound 893 at ZT8.5 and food access was restricted at ZT11. Liquid feed (AIN-76, BioServ, Flemington, N.J.) was prepared at 1000 kcal/L in milli-Q water and at ZT12, mice were gavaged with 400 μL (0.4 kcal) of diet, corresponding to approximately 3 h of ad libitum consumption of standard chow. For the pair feeding study, RER was monitored over 12 h in mice maintained on the HFD for 22 weeks (31 weeks of age); pair-fed mice were used after a 48 h wash-out period and provided with the average amount of food they ate over 24 h after sphingolipid-like compound 893 treatment (92.5 mg or 0.4 kcal).
During measurements of one SD cohort (4 vehicle- and 4 sphingolipid-like compound 893-treated mice), a leak in the reference CO2 system was detected, the O2 and CO2 data was censored until the leak was corrected (70-74 h). Feeding and activity measurements were not compromised and were still analyzed. Occasionally, uneaten food was found on the floor of the cage precluding use of the hopper sensor to accurately monitor food intake. In these instances, food intake data was censored for the prior 24 h period (days 2 and 3 for mouse 8 (SD+sphingolipid-like compound 893) and mouse 8 (SD+vehicle), and day 3 for mouse 8 (HFD+sphingolipid-like compound 893) and mouse 1 (HFD+vehicle)). […] In rare cases, inadvertent pharyngeal administration of gavage material occurred. These mice were not euthanized, but food intake, calorimetry, and activity data from these animals was excluded from the analysis for 1 week after this event (mouse 2 (HFD+sphingolipid-like compound 893) after the second treatment on day 3 and mouse 5 (HFD+sphingolipid-like compound 893) after the first dose on day 1).

Where [1] appears, read: mice on SD or HFD 10-12 weeks, 120 mg/kg p.o. at ZT8.5.

With `CCCCCCCCc1ccc([C@H]2CCN[C@@H]2CO)cc1.Cl` [compound 893], for the setting “120 mg/kg at ZT2, mice on standard diet”, the “Food intake and RER, morning dosing” value is “still decreased both food intake and RER”. Under “120 mg/kg p.o. at ZT8.5”, the “Activity (XY beam breaks)” value was “trend towards reduced activity”, the “Energy expenditure (Weir formula)” value was “not significantly affected” and the “Time after treatment at which RER returned to control values” was found to be 24 h. For the same compound, for the setting “mice on HFD 22 weeks, 120 mg/kg once at ZT8.5”, the “Food intake and body weight loss, HFD for 22 weeks” value is “the suppression of food intake and body weight loss appeared to increase”. For the same compound, under setting [1], the “Food intake in metabolic caging” value was “reduced food intake”; the “Respiratory exchange ratio (RER)” value was “reduced the RER in both HFD- and SD-fed mice”.
